Source: patent publication US4610977A, “N-alkyl and N-benzyl adriamycin derivatives” (The University of Tennessee Research Corporation, priority 1985, dated 1986)
Read-outs that look alike come from different tables or passages of the source.

Assays:
malignant tumors = conditions: cited from earlier work; for Clinical antitumor effectiveness: certain malignant tumors, e.g. induction of remission in acute leukemia; for Toxicities accompanying chemotherapy: limit effectiveness, particularly long-term use
murine L1210 leukemia = experiment: In vivo antitumor activity against murine L1210 leukemia in B6D2F1 male mice; conditions: L1210, qd 1-4; for % ILS (percent median increase in life span relative to untreated controls): at optimal dose (Examples 1/2/3: 12.5/20.0/25.0, adriamycin 3.0 mg/kg); for % ILS (percent median increase in life span relative to untreated controls) / LTS (tumor free long term survivors): ip; for LTS (tumor free long term survivors): at optimal dose, day of sacrifice: Examples 1-3 42
Description: (§1) The in vivo evaluations were made by preparing a 0.01 to 0.4% by weight solution of the active agent in an aqueous solution of polyethoxylated castor oil (10% by volume) and ethanol (10% by volume) as a carrier and injecting the dosage intraperitoneally. The evaluations were made of the antitumor activity against the murine P 388 and L1210 leukemias in B6D2F1 male mice essentially according to standard National Cancer Institute protocols as set forth by Geran et al., Cancer Chemotherap. Rep., Part 3, Volume 3, pages 1 et seq.

[1] = as above; conditions: mouse, in vivo, ip
Description: as §1

in vivo = conditions: mouse, ip
Description: as §1

CCRF-CEM cell line = experiment: Growth inhibition of CCRF-CEM cells in culture, 48 hours continuous drug exposure; type: cell-based, child with lymphoblastic leukemia; conditions: Homo sapiens
Method: The toxicity and therapeutic effectiveness of the new compounds and active agents of the present invention are shown by in vitro assays and by in vivo evaluations in mice. The in vitro assays measure the growth inhibiting activity of the materials against the CCRF-CEM cell line in culture. The cell line was derived from the peripheral blood of a child with lymphoblastic leukemia as described by Foley et al., Cancer, Volume 18, page 522 et seq. (1965), and the assays were carried out by the procedure of Foley and Lazarus, Biochem. Pharmacol., Vol. 16, pages 659 et seq. (1967), the compounds being dissolved in dimethyl sulfoxide and diluted into cell culture media to give a final dimethyl sulfoxide concentration of 1%, the results being reported in terms of the dose in micromoles per liter required to inhibit growth of the cultures by 50% relative to control cultures to which no drug had been added (ID50).
^1 Concentration required to inhibit growth of cultures by 50%
relative to untreated controls; 48 hours continuous drug exposure.

[2] = 48 hours continuous drug exposure, final DMSO 1%, read-out: ID50 (concentration required to inhibit growth of cultures by 50% relative to untreated controls)
[3] = 48 hours continuous drug exposure, read-out: ID50, corresponding compounds having different N-substitution

Structure (SMILES)	% ILS (percent median increase in life span relative to untreated controls) (murine L1210 leukemia)	LTS (tumor free long term survivors) (murine L1210 leukemia)	MTD [1] [mg/kg]	MTD (in vivo) [mg/kg]	IC50 (CCRF-CEM cell line; [3]) [nM]	other results
COc1cccc2c1C(=O)c1c(O)c3c(c(O)c1C2=O)C[C@@](O)(C(=O)CO)C[C@@H]3O[C@H]1C[C@H](N)[C@H](O)[C@H](C)O1 [Adriamycin]	+90%	0/7	3			Clinical antitumor effectiveness (malignant tumors): effective clinically against certain malignant tumors; Clinical efficacy against certain solid tumors (malignant tumors; certain solid tumors): has shown clinical efficacy against certain solid tumors; Toxicities accompanying chemotherapy (malignant tumors): a variety of toxicities; All animals dead by day (murine L1210 leukemia; adriamycin 3.0 mg/kg, footnote 4): ≤ 22 days
CCCCN(CCCC)[C@H]1C[C@H](O[C@H]2C[C@](O)(C(=O)CO)Cc3c(O)c4c(c(O)c32)C(=O)c2c(OC)cccc2C4=O)O[C@@H](C)[C@H]1O [Di-n-butyl]				25		
CCCN(CCC)[C@H]1C[C@H](O[C@H]2C[C@](O)(C(=O)CO)Cc3c(O)c4c(c(O)c32)C(=O)c2c(OC)cccc2C4=O)O[C@@H](C)[C@H]1O [Di-n-propyl]				20		
CCCCC(=O)OCC(=O)[C@]1(O)Cc2c(O)c3c(c(O)c2[C@@H](O[C@H]2C[C@H](NCc4ccccc4)[C@H](O)[C@H](C)O2)C1)C(=O)c1c(OC)cccc1C3=O [Example 1, N-Benzyladriamycin-14-valerate]	> +350%	5/7	12.5	10		IC50 (CCRF-CEM cell line; [2]): 1000 nM
CCCCC(=O)OCC(=O)[C@]1(O)Cc2c(O)c3c(c(O)c2[C@@H](O[C@H]2C[C@H](N(CCC)CCC)[C@H](O)[C@H](C)O2)C1)C(=O)c1c(OC)cccc1C3=O [Example 2, N,N-Di(n-propyl)adriamycin-14-valerate]	> +350%	4/7	20	20		IC50 (CCRF-CEM cell line; [2]): 1900 nM
CCCCC(=O)OCC(=O)[C@]1(O)Cc2c(O)c3c(c(O)c2[C@@H](O[C@H]2C[C@H](N(CCCC)CCCC)[C@H](O)[C@H](C)O2)C1)C(=O)c1c(OC)cccc1C3=O [Example 3, N,N-Di(n-butyl)adriamycin-14-valerate]	> +350%	5/7	25	30		IC50 (CCRF-CEM cell line; [2]): 2100 nM
COc1cccc2c1C(=O)c1c(O)c3c(c(O)c1C2=O)C[C@@](O)(C(=O)CO)C[C@@H]3O[C@H]1C[C@H](NCc2ccccc2)[C@H](O)[C@H](C)O1 [Mono-N--benzyl]				5		
COc1cccc2c1C(=O)c1c(O)c3c(c(O)c1C2=O)C[C@@](O)(C(C)=O)C[C@@H]3O[C@H]1C[C@H](N)[C@H](O)[C@H](C)O1 [daunomycin]						Clinical antitumor effectiveness (malignant tumors): effective clinically against certain malignant tumors; Toxicities accompanying chemotherapy (malignant tumors): a variety of toxicities
CCCCCCN(CCCCCC)[C@H]1C[C@H](O[C@H]2C[C@](O)(C(=O)COC(=O)CCCC)Cc3c(O)c4c(c(O)c32)C(=O)c2c(OC)cccc2C4=O)O[C@@H](C)[C@H]1O [di-n-hexyl]				40	2500	
CCCCC(=O)OCC(=O)[C@]1(O)Cc2c(O)c3c(c(O)c2[C@@H](O[C@H]2C[C@H](N(Cc4ccccc4)Cc4ccccc4)[C@H](O)[C@H](C)O2)C1)C(=O)c1c(OC)cccc1C3=O [dibenzyl]				20		IC50 (CCRF-CEM cell line; 48 h, read-out: ID50, corresponding compounds having different N-substitution): > 5000 nM
CCCCC(=O)OCC(=O)[C@]1(O)Cc2c(O)c3c(c(O)c2[C@@H](O[C@H]2C[C@H](N(CC)CC)[C@H](O)[C@H](C)O2)C1)C(=O)c1c(OC)cccc1C3=O [diethyl]				8	300	
CCCCC(=O)OCC(=O)[C@]1(O)Cc2c(O)c3c(c(O)c2[C@@H](O[C@H]2C[C@H](N(C)C)[C@H](O)[C@H](C)O2)C1)C(=O)c1c(OC)cccc1C3=O [dimethyl]					20	
CCCCC(=O)OCC(=O)[C@]1(O)Cc2c(O)c3c(c(O)c2[C@@H](O[C@H]2C[C@H](NCCC)[C@H](O)[C@H](C)O2)C1)C(=O)c1c(OC)cccc1C3=O [mono-n-propyl, N mono(n-propyl) adriamycin-14-valerate]				15	170	
